Laboratory results published in US5328909A, “Cyclopropenone derivatives” (Mitsubishi Kasei Corporation, priority 1991, dated 1994).
Structures can show the parent of a compound that is named as a salt.

Target: T1, m-calpain (Rattus norvegicus, UniProt Q07009)
T1 construct: m-calpain was purified from rat brain; from tissue; host or cells: rat brain
T1 sequence (Q07009 20-700 limits assumed): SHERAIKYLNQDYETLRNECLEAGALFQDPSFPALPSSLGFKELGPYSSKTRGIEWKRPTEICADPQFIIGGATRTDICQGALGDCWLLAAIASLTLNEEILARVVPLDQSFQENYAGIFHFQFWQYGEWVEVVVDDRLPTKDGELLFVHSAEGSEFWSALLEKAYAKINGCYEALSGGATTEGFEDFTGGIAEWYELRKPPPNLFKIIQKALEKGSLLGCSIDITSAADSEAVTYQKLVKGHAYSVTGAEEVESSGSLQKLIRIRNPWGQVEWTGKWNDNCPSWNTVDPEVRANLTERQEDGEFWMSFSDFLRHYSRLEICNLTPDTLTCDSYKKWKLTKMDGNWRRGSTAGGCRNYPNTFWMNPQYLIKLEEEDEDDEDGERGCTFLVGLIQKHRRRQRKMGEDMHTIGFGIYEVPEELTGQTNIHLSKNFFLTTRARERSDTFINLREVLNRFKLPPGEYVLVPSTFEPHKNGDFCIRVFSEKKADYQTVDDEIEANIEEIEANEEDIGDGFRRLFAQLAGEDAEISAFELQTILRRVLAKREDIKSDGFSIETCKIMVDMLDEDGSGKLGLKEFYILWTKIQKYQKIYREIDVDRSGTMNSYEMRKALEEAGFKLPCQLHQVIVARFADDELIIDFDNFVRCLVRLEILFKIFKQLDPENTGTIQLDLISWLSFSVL
T1 sequence (Q64537 1-270 partner): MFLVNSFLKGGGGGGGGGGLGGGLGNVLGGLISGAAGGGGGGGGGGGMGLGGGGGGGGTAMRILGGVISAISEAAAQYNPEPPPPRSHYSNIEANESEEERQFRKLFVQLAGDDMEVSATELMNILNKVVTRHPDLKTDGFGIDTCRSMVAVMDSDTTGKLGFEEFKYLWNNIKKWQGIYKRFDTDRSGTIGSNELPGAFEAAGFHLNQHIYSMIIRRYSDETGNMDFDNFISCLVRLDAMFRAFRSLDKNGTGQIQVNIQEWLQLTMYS
Assay: Thiol protease inhibitory activity against m-calpain purified from rat brain
Format: biochemical
Conditions: Table 4; rat brain enzyme; read-out: Inhibitory activity against m-calpain IC50
Method: Inhibitory activity against papain (P-3125, Sigma) and cathepsin B (C-6286, Sigma) was assayed according to the method described in a literature [Biochemical Journal, 201, 189 (1982)]. Capthesin L was purified from rat kidney according to the method in a literature [Journal of Biochemistry, 100, 35 (1986)], and the inhibitory activity against it was assayed in the same manner as described in the above literature for cathepsin B. Further, m-calpain was purified from rat brain according to a known method [Journal of Biological Chemistry, 254, p.3210 (1984)] and the inhibitory activity against it was assayed by a method described in a literature [Journal of Biological Chemistry, 259, 12489 (1984)]. The results are showing in Tables 3 and 4. It is evident from Tables 3 and 4 that the compounds in the present invention have a potent inhibitory activity against thiol proteases such as papain, cathepsin B, cathepsin L, m-calpain or the like.

Row | SMILES | IC50 [nM]
1 | CC(C)C[C@H](NC(=O)c1c(F)cccc1F)C(=O)N[C@@H](C(C)C)[C@@H](O)c1c(-c2ccccc2)c1=O [59 (No. 175), 2-[(1S, 2S)-2-{(S)-2-(2,6-difluorobenzoylamino)-4-methylvalerylamino}-1-hydroxy-3-methylbutyl]-3-phenylcyclopropenone] | 1600
2 | CC(C)C[C@H](NC(=O)OCC1CCCCC1)C(=O)N[C@@H](CC(C)C)C(=O)N[C@@H](C(C)C)[C@@H](O)c1c(-c2ccccc2)c1=O [118 (No. 467), 2-[(1S, 2S)-2-{(S)-2-((S)-2-cyclohexylmethoxycarbonylamino-4-methylvalerylamino)-4-methylvalerylamino}-1-hydroxy-3-methylbutyl]-3-phenylcyclopropenone] | 840
3 | CC(C)C[C@H](NC(=O)CCC(=O)c1ccccc1)C(=O)N[C@@H](C(C)C)[C@@H](O)c1c(-c2ccccc2)c1=O [45 (No. 140), 2-[(1S, 2S)-2-{(S)-2-(3-benzoylpropionylamino)-4-methylvalerylamino}-1-hydroxy-3-methylbutyl]-3-phenylcyclopropenone] | 1000
4 | CC(C)C[C@H](NC(=O)NCc1ccccc1)C(=O)N[C@@H](C(C)C)[C@@H](O)c1c(-c2ccccc2)c1=O [75 (No. 225), 2-[(1S, 2S)-2-{(S)-2-(3-benzylureido)-4-methylvalerylamino}-1-hydroxy-3-methylbutyl]-3-phenylcyclopropenone] | 3300
5 | CC(C)CCC(=O)N[C@@H](CC(C)C)C(=O)N[C@@H](C(C)C)[C@@H](O)c1c(-c2ccccc2)c1=O [37 (No. 114), 2-[(1S, 2S)-1-hydroxy-2-((S)-2-isohexanoylamino-4-methylvalerylamino)-3-methylbutyl]-3-phenylcyclopropenone] | 2100
6 | CC(C)C[C@H](NS(=O)(=O)c1ccc2ccccc2c1)C(=O)N[C@@H](C(C)C)[C@@H](O)c1c(-c2ccccc2)c1=O [89 (No. 260), 2-[(1S, 2S)-1-hydroxy-3-methyl-2-{(S)-4-methyl-2-(2-naphtylsulfonylamino)valerylamino}butyl]-3-phenylcyclopropenone] | 460
7 | CC(C)C[C@H](NC(=O)OCc1ccccc1)C(=O)N[C@@H](Cc1ccccc1)C(O)c1cc1=O (stereo partly drawn) [9 (No. 26), 2-[(2S)-2-((S)-2-benzyloxycarbonylamino-4-methylvalerylamino)-1-hydroxy-3-phenylpropyl]cyclopropenone] | 5000
8 | CC(C)C[C@H](NC(=O)COc1ccccc1)C(=O)N[C@@H](C(C)C)[C@@H](O)c1c(-c2ccccc2)c1=O [48 (No. 148), 2-[(1S, 2S)-1-hydroxy-3-methyl-2-((S)-4-methyl-2-phenoxyacetylaminovalerylamino)butyl]-3-phenylcyclopropenone] | 630
9 | CC(C)C[C@H](NS(=O)(=O)Cc1ccccc1)C(=O)N[C@@H](C(C)C)[C@@H](O)c1c(-c2ccccc2)c1=O [78 (No. 237), 2-[(1S, 2S)-2-((S)-2-benzylsulfonylamino-4-methylvalerylamino)-1-hydroxy-3-methylbutyl]-3-phenylcyclopropenone] | 440
10 | CC(C)C[C@H](NC(=O)COc1ccc(Cl)cc1)C(=O)N[C@@H](C(C)C)[C@@H](O)c1c(-c2ccccc2)c1=O [51 (No. 154), 2-[(1S, 2S)-2-{(S)-2-(4-chlorophenoxyacetylamino)-4-methylvalerylamino}-1-hydroxy-3-methylbutyl]-3-phenylcyclopropenone] | 750
11 | CC(C)C[C@H](NC(=O)CSc1ccccc1)C(=O)N[C@@H](C(C)C)[C@@H](O)c1c(-c2ccccc2)c1=O [56 (No. 168), 2-[(1S, 2S)-1-hydroxy-3-methyl-2-((S)-4-methyl-2-phenylthioacetylaminovalerylamino}butyl]-3-phenylcyclopropenone] | 2200
12 | CC(C)C[C@H](NC(=O)OCc1ccncc1)C(=O)N[C@@H](C(C)C)[C@H](O)c1c(-c2ccccc2)c1=O [32 (No. 99), 2-[(1R, 2S)-1-hydroxy-3-methyl-2-{(S)-4-methyl-2-(4-pyridylmethoxycarbonylamino)valerylamino}butyl]-3-phenylcyclopropenone hydrochloride] | 1200
13 | CC(C)C[C@H](NS(=O)(=O)c1ccc(Cl)cc1)C(=O)N[C@@H](C(C)C)[C@@H](O)c1c(-c2ccccc2)c1=O [85 (No. 248), 2-[(1S, 2S)-2-{(S)-2-(4-chlorophenylsulfonylamino)-4-methylvalerylamino}-1hydroxy-3-methylbutyl]-3-phenylcyclopropenone] | 840
14 | CC(C)C[C@H](NS(=O)(=O)c1ccc(F)cc1)C(=O)N[C@@H](C(C)C)[C@@H](O)c1c(-c2ccccc2)c1=O [83 (No. 245), 2-[(1S, 2S)-2-{(S)-2-(4-fluorophenylsulfonylamino)-4-methylvalerylamino}-1-hydroxy-3-methylbutyl]-3-phenylcyclopropenone] | 3000
15 | COC(=O)c1ccc(C(=O)N[C@@H](CC(C)C)C(=O)N[C@@H](C(C)C)[C@@H](O)c2c(-c3ccccc3)c2=O)cc1 [65 (No. 191), 2-[(1S, 2S)-1-hydroxy-2-{(S)-2-(4-methoxycarbonylbenzoylamino)-4-methylvalerylamino}-3-methylbutyl]-3-phenylcyclopropenone] | 1800
16 | CC(C)C[C@H](NC(=O)OCc1ccccn1)C(=O)N[C@@H](C(C)C)[C@@H](O)c1c(-c2ccccc2)c1=O [29 (No. 97), 2-[(1s, 2S)-1-hydroxy-3-methyl-2-{(S)-4-methyl-2-(2-pyridylmethoxycarbonylamino)valerylamino}butyl]-3-phenylcyclopropenone hydrochloride] | 1700
17 | CCCS(=O)(=O)N[C@@H](CC(C)C)C(=O)N[C@@H](C(C)C)[C@@H](O)c1c(-c2ccccc2)c1=O [77 (No. 232), 2-[(1S, 2S)-1-hydroxy-3-methyl-2-((S)-4-methyl-2-propylsulfonylaminovalerylamino)butyl]-3-phenylcyclopropenone] | 950
18 | CC(C)COC(=O)N[C@@H](CC(C)C)C(=O)N[C@@H](C(C)C)[C@H](O)c1c(-c2ccccc2)c1=O [21 (No. 72), 2-[(1R, 2S)-1-hydroxy-2-((S)-2-isobutoxycarbonylamino-4-methylvalerylamino)-3-methylbutyl]-3-phenylcyclopropenone] | 3000
19 | CC(C)C[C@H](NC(=O)COc1cccc(Cl)c1Cl)C(=O)N[C@@H](C(C)C)[C@@H](O)c1c(-c2ccccc2)c1=O [52 (No. 155), 2-[(1S, 2S)-2-{(S)-2-(2,3-dichlorophenoxyacetylamino)-4-methylvalerylamino}-1-hydroxy-3-methylbutyl]-3-phenylcyclopropenone] | 740
20 | CC(C)C[C@H](NC(=O)OCc1ccncc1)C(=O)N[C@@H](C(C)C)[C@@H](O)c1c(-c2ccccc2)c1=O [31 (No. 99), 2-[(1S, 2S)-1-hydroxy-3-methyl-2-{(S)-4-methyl-2-(4-pyridylmethoxycarbonylamino)valerylamino}butyl]-3-phenylcyclopropenone hydrochloride] | 1300
21 | CC(C)C[C@H](NC(=O)CCOc1ccccc1)C(=O)N[C@@H](C(C)C)[C@@H](O)c1c(-c2ccccc2)c1=O [55 (No. 167), 2-[(1S, 2S)-1-hydroxy-3-methyl-2-{(S)-4-methyl-2-(3-phenoxypropionylamino)valerylamino}butyl]-3-phenylcyclopropenone] | 800
22 | CC(C)C[C@H](NC(=O)c1ccc2ccccc2n1)C(=O)N[C@@H](C(C)C)[C@@H](O)c1c(-c2ccccc2)c1=O [74 (No. 219), 2-[(1S, 2S)-1-hydroxy-3-methyl-2-{(S)-4-methyl-2-(2-quinolylcarbonylamino)valerylamino}butyl-3-phenylcyclopropenone hydrochloride] | 800
23 | CCCCCCCCCCCC(=O)N[C@@H](CC(C)C)C(=O)N[C@@H](C(C)C)[C@@H](O)c1c(-c2ccccc2)c1=O [38 (No. 120), 2-[(1S, 2S)-1-hydroxy-2-((S)-2-lauroylamino-4-methylvalerylamino)^- 3-methylbutyl]-3-phenylcyclopropenone] | 4000
